Data as given in article PMC11353420, “Anti-Inflammatory, Cytotoxic, and Genotoxic Effects of Soybean Oligopeptides Conjugated with Mannose” (Foods, 2024).
Where “and” joins values, the source holds several entries; their conditions need not be identical. Identical values can stand only once.

Columns and labels:
[1] = system: Salmonella typhimurium strain TA100; test: Salmonella mutation assay (Ames test), TA100; format: cell-based; settings: positive mutagen
Description: (§1) Overnight bacterial cultures were mixed with various doses of test compounds with (+S9) or without (−S9) and incubated at 37 °C for 20 min. The top agar was added and then poured onto a plate of minimal glucose agar. The plates were incubated at 37 °C for 48 h. The number of revertant colonies was counted and the mutagenic index (MI) was calculated. 2-aminoanthracene (2-AA) and 2-(2-furyl)-3-(5-nitro-2-furyl)-acrylamide (AF-2) were used as positive mutagens in the presence and absence of S9.

[2] = system: Salmonella typhimurium strain TA98; test: Salmonella mutation assay (Ames test), TA98; format: cell-based; settings: positive mutagen
Description: as §1

[3] = system: human red blood cells (RBCs); test: Hemolysis assay; format: cell-based; settings: 0.05%, positive control
Excerpt: As described by Karinchai et al., human peripheral blood mononuclear cells (PBMCs) and red blood cells (RBCs) were isolated from human blood samples [41]. Human blood samples of healthy subjects obtained from Maharaj Hospital, Chiang Mai, Thailand, were anonymized and kept in a heparinized tube by the laboratory. RBCs were collected and used to determined hemolysis induction by a hemolysis assay. Ficoll-Hypaque solution was used to isolate PBMCs, as described in the manufacturer’s instructions. A certificate of exemption by the Research Ethics Committee of the Faculty of Medicine, Chiang Mai University (No. EXEMPTION 8989/2022), was granted. Consent to participate was not applicable as all data were anonymized. All methods were carried out in accordance with relevant guidelines and regulations.
The hemolytic effect of the oligopeptide and its conjugated forms was determined by hemolysis assay. Briefly, the 5% RBCs suspension was mixed with various concentrations of the samples and further incubated at 37 °C for 3 h. The hemolysis induction by the compounds was measured as described previously. The hemolytic effect of each compound was interpreted using the following guidelines: 0–10% hemolysis is non-hemolysis, 10–25% hemolysis is slight hemolysis induction, and >25% hemolysis is high hemolysis induction.

[4] = system: Drosophila melanogaster; test: Somatic mutation and recombination test (SMART, wing spot test); format: in vivo; design: key to Statistical diagnosis vs DI (negative control), Small Single (1–2 Cells) / Statistical diagnosis vs DI (negative control), Large Single (>2 Cells) / Statistical diagnosis vs DI (negative control), Twin / Statistical diagnosis vs DI (negative control), Total Spots: + = positive; − = negative; i = inconclusive; settings: 20 mM, positive control
Description: In brief, two strains of fruit flies, including mwh/mwh and ORR; flr^3/In(3LR) TM3, ri p^p sep l(3)89Aa bx^34e e Bd^S, were mated. […] After hatching, forty round wings were collected and analyzed for mutant spots (single, large, and twin spots). The statistical analysis for the wing spot test was performed as previously described. The Drosophila study was approved by the Institute of Nutrition—Mahidol University Institutional Animal Care and Use Committee (INMU-IACUC) (COA. No. INMU-IACUC 2023/01).

[5] = system: COX-2; test: COX-2 protein level by immunoblotting in LPS-treated RAW 264.7; format: cell-based, murine; settings: 100, 200, 400 µg/mL, LPS 1 µg/mL 24 h
Description: (§2) RAW 264.7 macrophage cells were pretreated with various concentrations of the oligopeptide and its conjugated forms (100, 200, 400 µg/mL) for an hour and then incubated with LPS (1 µg/mL) for a further 24 h (at 37 °C in a 5% CO2 humidified atmosphere). The cells were then collected to investigate the iNOS and COX-2 protein levels. Cell lysate was prepared to obtain the protein samples. The samples were subjected to 10% sodium dodecyl sulfate polyacrylamide gel electrophoresis (SDS-PAGE). The separated proteins were electrically transferred to a nitrocellulose membrane. The target proteins were probed with specific antibodies, including anti-COX-2 antibody (Cell signaling, Danvers, MA, USA), anti-iNOS antibody (Merck, Rahway, NJ, USA), and anti-β-actin antibody (Sigma, St. Louis, MO, USA). Protein detection was performed using a chemiluminescence reagent (Bio-Rad Laboratories, Watford, UK).

[6] = system: 3T3-L1 Pre-adipocyte; test: SRB cytotoxicity assay, 3T3-L1 pre-adipocyte; format: cell-based, murine
Excerpt: (§3) HEK293 (Human embryonic kidney cell line), HepG2 (Human liver carcinoma cell line), LX-2 (Human hepatic stellate cell line), and 3T3-L1 (Murine preadipocyte cell line) cells were obtained from the American Type Culture Collection (ATCC), Bethesda, MD, USA.

[7] = system: HEK293 (Human embryonic kidney cell line); test: SRB cytotoxicity assay, HEK293; format: cell-based
Excerpt: as §3

[8] = system: IL-6; test: IL-6 secretion by ELISA in LPS-treated RAW 264.7; format: cell-based, murine; settings: 100, 200, 400 µg/mL, LPS 1 µg/mL 24 h
Description: (§4) RAW 264.7 macrophage cells were pretreated with various concentrations of the oligopeptide and its conjugated forms (100, 200, 400 µg/mL) for an hour and then incubated with LPS (1 µg/mL) for further 24 h at 37 °C in a 5% CO2 humidified atmosphere. Then, a sandwich Enzyme Link Immuno-Sorbent Assay was carried out in accordance with the manufacturer’s protocols (BioLegend ELISA MAXTM Deluxe Set, San Diego, CA, USA) to measure TNF-α or IL-6 protein levels in the condition medium.

[9] = system: iNOS; test: iNOS protein level by immunoblotting in LPS-treated RAW 264.7; format: cell-based, murine; settings: 100, 200, 400 µg/mL, LPS 1 µg/mL 24 h
Description: as §2

[10] = system: HepG2 (Human liver carcinoma cell line); test: SRB cytotoxicity assay, HepG2; format: cell-based
Excerpt: as §3

[11] = system: LX-2 (Human hepatic stellate cell line); test: SRB cytotoxicity assay, LX-2; format: cell-based
Excerpt: as §3

[12] = system: 3T3-L1 Mature-adipocytes; test: SRB cytotoxicity assay, 3T3-L1 mature adipocytes; format: cell-based, murine
Description: The pre-adipocyte 3T3-L1 cell line was differentiated to become mature adipocytes by culturing the cells to 100% confluence in 10% calf serum DMEM (CS medium), as Day 0 in a 96 well-plate. After post-confluence, the cells were incubated with the induction medium as a differentiation initiation medium (DMEM […] 1 μM DEX, 0.5 mM IBMX, 167 nM insulin, and 10% FBS) for 3 days (Days 1–3). After that, cells were cultured in a differentiation medium as an adipogenic differentiation medium (differentiation media: DMEM containing 167 nM insulin and 10% FBS) for 3 days (Days 4–6). Finally, maturation was induced in an induced-lipid accumulation medium (maturation media: DMEM containing 167 nM insulin and 10% FBS) for 6 days (Days 7–12). The mature adipocytes were then used for toxicity testing.
(§5) The cytotoxicity of the oligopeptide and its conjugated forms on HepG2, HEK293, LX-2, and RAW 264.7 cells, pre- and mature 3T3-L1 adipocytes, and hPBMCs was analyzed by a sulforhodamine (SRB) assay to obtain their non-toxic concentration for further experiments and as screening data for their in vitro safety. The cells were plated for 12 h in 96-well plates and then treated with the oligopeptide and its conjugated sugar at a concentration of 0–1000 µg/mL for 48 h. Dimethyl sulfoxide (DMSO) was used as a vehicle control (the untreated control). At the indicated time, the cells were then fixed and subjected to an SRB assay. The absorbance was measured at 510 nm by spectrophotometry (Gen5, BioTek, Winooski, VT, USA), and the cell viability was calculated as the ratio of the treatment versus untreated control. The data are represented as the mean ± standard deviation of three replicates and are expressed relative to the untreated control. The percentage of cell survival was calculated as follows:% cell survival = (Abs_extract/Abs_control) × 100

[13] = system: NO production in LPS-treated RAW 264.7 macrophages; test: LPS-induced nitric oxide (NO)/nitrite production, Griess reaction; format: cell-based, murine; settings: 100, 200, 400 µg/mL pretreatment 1 h, LPS 1 µg/mL 24 h
Description: To screen the anti-inflammation ability of the compounds, the nitrite level in the cultured medium of the treated cells was determined by the Griess reaction. RAW 264.7 macrophage cells were pretreated with various concentrations of the oligopeptide and its conjugated forms (100, 200, 400 µg/mL) for an hour and then incubated with LPS (1 µg/mL) for further 24 h at 37 °C in a 5% CO2 humidified atmosphere. The culture supernatant was collected for the Griess reagent assay as previous described. The NO production was calculated by comparison with LPS-treated controls.

[14] = system: TNF-α; test: TNF-α secretion by ELISA in LPS-treated RAW 264.7; format: cell-based, murine; settings: 400 µg/mL, LPS-stimulated cells
Description: as §4

[15] = system: RAW 264.7 murine macrophage cell line; test: SRB cytotoxicity assay, RAW 264.7
Description: The cells were maintained in a 5% CO2 humidified atmosphere (CO2 incubator, Thermo Scientific, Waltham, MA, USA) at 37 °C and sub-cultured every 3 days.
as §5

`NC(=O)C(=Cc1ccc([N+](=O)[O-])o1)c1ccco1` [AF-2, 2-(2-furyl)-3-(5-nitro-2-furyl)-acrylamide] was tested, and the “His^+ Revertant Colonies per Plate” value ([1]; TA100, −S9, 0.01 µg per plate) was 527.3 ± 15.0 and the “His^+ Revertant Colonies per Plate” value ([2]; TA98, −S9, 0.1 µg per plate) was 293.0 ± 10.3.
In the case of `Nc1ccc2cc3ccccc3cc2c1` [2-AA, 2-aminoanthracene], the “His^+ Revertant Colonies per Plate” value ([1]; TA100, +S9, 0.5 µg per plate) is reported as 599.7 ± 8.7 and the “His^+ Revertant Colonies per Plate” value ([2]; TA98, +S9, 0.5 µg per plate) is reported as 325.8 ± 16.2.
In the case of triton x-100, the “% Hemolysis (n = 5)” value [3] is reported as 100 ± 0.00%.
With `CCOC(N)=O` [urethane] the “Statistical diagnosis vs DI (negative control), Large Single (>2 Cells)” value [4] was “+”, the “Statistical diagnosis vs DI (negative control), Small Single (1–2 Cells)” value [4] was “+” and the “Statistical diagnosis vs DI (negative control), Total Spots” value [4] was “+”. For the same compound, the “Statistical diagnosis vs DI (negative control), Twin” value [4] was “+”, the “total mutant spot, fold greater than the negative control” value [4] was 15 fold and the “Frequency of Mutant Spots per Individual (Number of Spots), Large Single (>2 Cells)” value ([4]; 40 wings) was 3.40 (136). For the same compound, the “Frequency of Mutant Spots per Individual (Number of Spots), Small Single (1–2 Cells)” value ([4]; 40 wings) was 6.10 (244), the “Frequency of Mutant Spots per Individual (Number of Spots), Total Spots” value ([4]; 40 wings) was 10.18 and 10.18 (407) and the “Frequency of Mutant Spots per Individual (Number of Spots), Twin” value ([4]; 40 wings) was 0.68 (27).
For `O=C(CO)[C@H](O)[C@H](O)[C@H](O)CO` [AL, D-allulose], the “effect on COX-2 protein level” value [5] was “did not affect”, the IC20 [6] was greater than 1000 µg/mL and the IC50 ([6]; 3T3-L1 Pre-adipocyte, 48 h, SRB) was greater than 1000 µg/mL. For the same compound, the IC20 [7] was greater than 1000 µg/mL, the IC50 ([7]; HEK293, 48 h, SRB) was greater than 1000 µg/mL and the “effect on level of IL-6” value [8] was “did not alter”. The “effect on iNOS protein level” value [9] was “did not affect”, the IC20 [10] was greater than 1000 µg/mL and the IC50 ([10]; HepG2, 48 h, SRB) was greater than 1000 µg/mL. The IC20 [11] was greater than 1000 µg/mL, the IC50 ([11]; LX-2, 48 h, SRB) was greater than 1000 µg/mL and the IC20 [12] was greater than 1000 µg/mL. For the same compound, the IC50 ([12]; 3T3-L1 Mature-adipocytes, 48 h, SRB) was greater than 1000 µg/mL, the “inhibition of LPS-induced NO production” value [13] was “did not inhibit” and the “effect on TNF-α level” value [14] was “significantly decreased”. For the same compound, the IC20 [15] was greater than 1000 µg/mL and the IC50 ([15]; RAW 264.7, 48 h, SRB) was greater than 1000 µg/mL.
